Measurements reported in article PMC11456426, “Study of transport, tissue distribution, depletion, and hepatotoxicity of Cyadox, a quinoxaline-1,4-dioxide derivative” (Frontiers in Pharmacology, 2024).

Experiments:
[1] = Tissue distribution and depletion after oral [3H]-CYA for seven consecutive days; assay type: in vivo, Wistar rats; conditions: rats; for Tissue distribution and depletion of CYA (means ± SD) / t1/2 (elimination half-life): oral 10 mg/kg·bw x 7 days; for Tissue distribution and depletion of CYA (means ± SD): n = 4
Method: For the tissue distribution study, 24 rats were divided into six groups, one group as a blank control and five groups as five time point groups. Each time point group consisted of 4 rats (2 male and 2 female) administered [^3H]-CYA orally by gavage at 10 mg/kg bw (corresponded to a feed inclusion of approximately 100 mg/kg dose) for seven consecutive days, respectively. Dosing suspensions of [^3H]-CYA (2.08 Ci/mmol) were prepared in 0.5% aqueous carboxymethyl cellulose (CMC) at 4 mg/mL after being diluted with non-radiolabeled CYA to a specific activity of 9,044 dpm/µg. Another group of 4 rats (2 male and 2 female) was fed separately from the radioactive administration group for the blank control under the same conditions, sacrificed at 0 day. One group of 2 male and 2 female rats was randomly selected to be slaughtered at each time point (0.25, 1, 3, 7, and 14 days) after withdrawal. The rats were dissected, and blood, muscle, heart, liver, lung, spleen, kidney, skin, stomach, large intestine, small intestine, brain, cecum, testicle (or ovary), bladder, and bone (thigh bone) were collected separately and stored at −20°C until analysis. The weight of each tissue was recorded. Gastrointestinal tracts were stripped of their contents.
(§1) For radioactivity detection, the samples were combusted by PerkinElmer Oxidizer 307 (PerkinElmer Life and Analytical Sciences). ^3H2O was collected into 20 mL of scintillant (PerkinElmer Life and Analytical Sciences) with 10 mL of Monophase S, and sample radioassays were quantitated by PerkinElmer® TriCarb® 2900 (PerkinElmer Life and Analytical Sciences) with low-level quench-correction. Counting efficiency was above 65%.
(§2) Tissue samples for each sampling time from all animals were homogenized, aliquots of blood and urine were mixed thoroughly, and feces were homogenized in methanol/water (50:50; V/V). Samples of the blood (500 μL), urine (500 μL) feces (500 mg), bone, and all tissues (100–500 mg) were combusted in PerkinElmer Oxidizer 307 after being transferred into tared cones and pads (PerkinElmer Life and Analytical Sciences) and added an aliquot of Combustaid (200 μL; PerkinElmer Life and Analytical Sciences). Radioactivity in the combustion products was determined by collecting ^3H2O into distilled water followed by liquid scintillation counting. Combustion efficiency was determined daily, prior to the combustion of study samples, by using a diluted dose formulation or ^3H standard. The measured radioactivity content in the combusted samples was adjusted using the combustion efficiency values. Samples were analyzed for radioactivity for 5 min. Total residue concentrations were calculated from the specific activity and radioactivity per mass or volume and expressed as molar equivalents of CYA.

[2] = Excretion study, recovery of total radioactivity after single oral [3H]-CYA; assay type: in vivo, Wistar rats
Method: For the excretion study, a group of six rats (3 male and 3 female) were housed individually in metabolism cages, which allowed separate collection of urine and feces, and then administered with a single dose of 10 mg/kg bw (corresponded to a feed inclusion of approximately 100 mg/kg dose) [^3H]-CYA by oral gavage. Dosing suspensions of [^3H]-CYA were prepared in 0.5% aqueous CMC at 2 mg/mL after [^3H]-CYA (2.08 Ci/mmol) was diluted with non-radiolabeled CYA to a specific activity of 4.52 × 10^4 dpm/µg. Urine and feces were collected from intact animals for 7 days at 0–12, 12–24, 24–48, 48–72, 72–96, 96–120, 120–144, and 144–168 h after the dose, and the total weight of the urine and feces was recorded after each collection. At the end of the study, the animals are anesthetized, and once it's confirmed that they have lost consciousness, they are euthanized by exsanguination. The samples were stored at −20°C until analysis. Contents of gastrointestinal tracts were pooled with feces of 144–168 h time point. Each metabolism cage was thoroughly rinsed with a mixture of methanol/water (1:1; V/V), and the rinse solvent was collected and weighed. Each cage rinse was stirred thoroughly, […] of subsamples were removed, and radioactivities were analyzed immediately. One animal per gender was administered with non-radiolabeled CYA at the same dose, and animals were sacrificed at 6 h post-dose. Urine, feces, and tissues were collected for the blank controls.
as §1, §2

[3] = rats, single oral 10 mg/kg bw, 7 days

SMILES: [3H]c1ccc2c(c1)[n+]([O-])cc(/C=N/NC(=O)CC#N)[n+]2[O-] [[^3H]-CYA]
- Tissue distribution and depletion of CYA (means ± SD) ([1]; Bladder, 6 h after withdrawal): 0.98863 ± 0.19738 mg/kg
- Tissue distribution and depletion of CYA (means ± SD) ([1]; Blood, 6 h after withdrawal): 1.55298 ± 0.13322 mg/kg
- Tissue distribution and depletion of CYA (means ± SD) ([1]; Blood, 1 d after withdrawal): 0.78575 ± 0.05613 mg/kg
- Tissue distribution and depletion of CYA (means ± SD) ([1]; Blood, 3 d after withdrawal): 0.74887 ± 0.0257 mg/kg
- Tissue distribution and depletion of CYA (means ± SD) ([1]; Blood, 7 d after withdrawal): 0.06989 ± 0.03612 mg/kg
- t1/2 (elimination half-life) ([1]; Blood): 38.50 h
- Tissue distribution and depletion of CYA (means ± SD) ([1]; Bone, 6 h after withdrawal): 0.49469 ± 0.05879 mg/kg
- Tissue distribution and depletion of CYA (means ± SD) ([1]; Bone, 1 d after withdrawal): 0.28043 ± 0.05615 mg/kg
- Tissue distribution and depletion of CYA (means ± SD) ([1]; Brain, 6 h after withdrawal): 0.62702 ± 0.06033 mg/kg
- Tissue distribution and depletion of CYA (means ± SD) ([1]; Brain, 1 d after withdrawal): 0.45064 ± 0.04138 mg/kg
- Tissue distribution and depletion of CYA (means ± SD) ([1]; Caecum, 6 h after withdrawal): 15.5409 ± 2.03867 mg/kg
- Tissue distribution and depletion of CYA (means ± SD) ([1]; Caecum, 1 d after withdrawal): 0.56384 ± 0.06558 mg/kg
- Tissue distribution and depletion of CYA (means ± SD) ([1]; Caecum, 3 d after withdrawal): 0.02075 ± 0.01112 mg/kg
- t1/2 (elimination half-life) ([1]; Caecum): 7.45 h
- Tissue distribution and depletion of CYA (means ± SD) ([1]; Heart, 6 h after withdrawal): 1.091 ± 0.1971 mg/kg
- Tissue distribution and depletion of CYA (means ± SD) ([1]; Heart, 1 d after withdrawal): 0.66217 ± 0.10149 mg/kg
- Tissue distribution and depletion of CYA (means ± SD) ([1]; Heart, 3 d after withdrawal): 0.24376 ± 0.04678 mg/kg
- t1/2 (elimination half-life) ([1]; Heart): 31.50 h
- Tissue distribution and depletion of CYA (means ± SD) ([1]; Kidney, 6 h after withdrawal): 6.24527 ± 0.67361 mg/kg
- Tissue distribution and depletion of CYA (means ± SD) ([1]; Kidney, 1 d after withdrawal): 2.03447 ± 0.34637 mg/kg
- Tissue distribution and depletion of CYA (means ± SD) ([1]; Kidney, 3 d after withdrawal): 1.14528 ± 0.11569 mg/kg
- Tissue distribution and depletion of CYA (means ± SD) ([1]; Kidney, 7 d after withdrawal): 0.08605 ± 0.04177 mg/kg
- t1/2 (elimination half-life) ([1]; Kidney): 28.88 h
- Tissue distribution and depletion of CYA (means ± SD) ([1]; Large Intestine, 6 h after withdrawal): 2.32296 ± 0.11341 mg/kg
- Tissue distribution and depletion of CYA (means ± SD) ([1]; Large Intestine, 1 d after withdrawal): 0.5581 ± 0.05702 mg/kg
- Tissue distribution and depletion of CYA (means ± SD) ([1]; Large Intestine, 3 d after withdrawal): 0.12977 ± 0.0238 mg/kg
- t1/2 (elimination half-life) ([1]; Large Intestine): 16.90 h
- Tissue distribution and depletion of CYA (means ± SD) ([1]; Liver, 6 h after withdrawal): 5.04944 ± 0.37061 mg/kg
- Tissue distribution and depletion of CYA (means ± SD) ([1]; Liver, 1 d after withdrawal): 2.35504 ± 0.25805 mg/kg
- Tissue distribution and depletion of CYA (means ± SD) ([1]; Liver, 3 d after withdrawal): 1.4301 ± 0.17539 mg/kg
- Tissue distribution and depletion of CYA (means ± SD) ([1]; Liver, 7 d after withdrawal): 0.12635 ± 0.04235 mg/kg
- t1/2 (elimination half-life) ([1]; Liver): 33.00 h
- Tissue distribution and depletion of CYA (means ± SD) ([1]; Lung, 6 h after withdrawal): 1.88405 ± 0.29415 mg/kg
- Tissue distribution and depletion of CYA (means ± SD) ([1]; Lung, 1 d after withdrawal): 1.68108 ± 0.11214 mg/kg
- Tissue distribution and depletion of CYA (means ± SD) ([1]; Lung, 3 d after withdrawal): 0.79745 ± 0.09581 mg/kg
- Tissue distribution and depletion of CYA (means ± SD) ([1]; Lung, 7 d after withdrawal): 0.04918 ± 0.01852 mg/kg
- t1/2 (elimination half-life) ([1]; Lung): 30.13 h
- Tissue distribution and depletion of CYA (means ± SD) ([1]; Muscle, 6 h after withdrawal): 0.96902 ± 0.06106 mg/kg
- Tissue distribution and depletion of CYA (means ± SD) ([1]; Muscle, 1 d after withdrawal): 0.52982 ± 0.05487 mg/kg
- Tissue distribution and depletion of CYA (means ± SD) ([1]; Ovary, 6 h after withdrawal): 2.88421 ± 0.06688 mg/kg
- Tissue distribution and depletion of CYA (means ± SD) ([1]; Ovary, 1 d after withdrawal): 0.32655 ± 0.03923 mg/kg
- Tissue distribution and depletion of CYA (means ± SD) ([1]; Ovary, 3 d after withdrawal): 0.01887 ± 0.00619 mg/kg
- t1/2 (elimination half-life) ([1]; Ovary): 9.63 h
- Tissue distribution and depletion of CYA (means ± SD) ([1]; Skin/Fat, 6 h after withdrawal): 1.2996 ± 0.23417 mg/kg
- Tissue distribution and depletion of CYA (means ± SD) ([1]; Skin/Fat, 1 d after withdrawal): 1.03596 ± 0.07642 mg/kg
- Tissue distribution and depletion of CYA (means ± SD) ([1]; Skin/Fat, 3 d after withdrawal): 0.42024 ± 0.03644 mg/kg
- Tissue distribution and depletion of CYA (means ± SD) ([1]; Skin/Fat, 7 d after withdrawal): 0.0253 ± 0.02233 mg/kg
- Tissue distribution and depletion of CYA (means ± SD) ([1]; Small Intestine, 6 h after withdrawal): 2.86777 ± 0.1072 mg/kg
- Tissue distribution and depletion of CYA (means ± SD) ([1]; Small Intestine, 1 d after withdrawal): 0.46368 ± 0.12091 mg/kg
- Tissue distribution and depletion of CYA (means ± SD) ([1]; Small Intestine, 3 d after withdrawal): 0.05785 ± 0.01762 mg/kg
- t1/2 (elimination half-life) ([1]; Small Intestine): 12.60 h
- Tissue distribution and depletion of CYA (means ± SD) ([1]; Spleen, 6 h after withdrawal): 1.1278 ± 0.08725 mg/kg
- Tissue distribution and depletion of CYA (means ± SD) ([1]; Spleen, 1 d after withdrawal): 0.75931 ± 0.04725 mg/kg
- Tissue distribution and depletion of CYA (means ± SD) ([1]; Spleen, 3 d after withdrawal): 0.2717 ± 0.05323 mg/kg
- Tissue distribution and depletion of CYA (means ± SD) ([1]; Spleen, 7 d after withdrawal): 0.02521 ± 0.04114 mg/kg
- t1/2 (elimination half-life) ([1]; Spleen): 30.13 h
- Tissue distribution and depletion of CYA (means ± SD) ([1]; Stomach, 6 h after withdrawal): 2.29013 ± 0.61619 mg/kg
- Tissue distribution and depletion of CYA (means ± SD) ([1]; Stomach, 1 d after withdrawal): 0.44866 ± 0.04356 mg/kg
- Tissue distribution and depletion of CYA (means ± SD) ([1]; Stomach, 3 d after withdrawal): 0.14233 ± 0.00993 mg/kg
- t1/2 (elimination half-life) ([1]; Stomach): 18.24 h
- Tissue distribution and depletion of CYA (means ± SD) ([1]; Testicle, 6 h after withdrawal): 1.05196 ± 0.00706 mg/kg
- Tissue distribution and depletion of CYA (means ± SD) ([1]; Testicle, 1 d after withdrawal): 0.74037 ± 0.07782 mg/kg
- Tissue distribution and depletion of CYA (means ± SD) ([1]; Testicle, 3 d after withdrawal): 0.3319 ± 0.05429 mg/kg
- t1/2 (elimination half-life) ([1]; Testicle): 40.76 h
- time of maximum concentrations in all detected organs or tissues ([1]; oral 10 mg/kg bw for seven consecutive days): 6 h
- radioactivity excreted, % of total dose ([2]; 0–12 h post-dose): 21.03%
- radioactivity excreted, % of total dose ([2]; 12–24 h post-dose): 70.25%
- drug-related radioactivity excreted, % of administration amount ([2]; first 24 h after administration): 91.28%
- radioactivity excreted in the feces [2, 3]: 60.25%
- radioactivity excreted in the urine [2, 3]: 34.81%
- radioactivity of the cage rinse [2, 3]: 0.78%
- radioactivity remaining in the carcass [2, 3]: 0.38%
- Overall recovery of total radioactivity ([2]; rats, single oral 10 mg/kg bw, within 7 days (168 h), n = 6): 96.22%
